From US6555556B1, “Benzamidine derivatives” (Sankyo Company, Limited, priority 1999, dated 2003)
Counter-ions that a name gives are not always drawn.

Target: T1, human factor Xa (Homo sapiens, UniProt P00742)
T1 construct: purchased Cosmo Bio Co., Ltd, Tokyo, Japan
Assay: Determination of anti-factor Xa activity (chromogenic substrate S-2222)
Type: biochemical
Details: 0.25 unit/ml human factor Xa, 0.4 mM S-2222, tris-HCl buffer pH 8.4, 5 min at room temperature, absorbance 405 nm; read-out: Factor Xa inhibitory activity [IC50 (nM)]
Description: Anti-factor Xa activity was determined according to the method of Hara et al. (Thromb. Haemost, 71, 314 (1994), with slight modifications. A 50 mM tris-HCl buffer (pH 8.4) containing 0.9% NaCl, 0.4 mM chromogenic substrate, S-2222 (Daiichi Pure Chemicals Co., Ltd., Tokyo, Japan), and a test compound were mixed, and the reaction was started by adding 0.25 unit/ml human factor Xa (Cosmo Bio Co., Ltd, Tokyo, Japan). Distilled water instead of the test compound was added to the buffer in the control group. The reaction mixture in a total volume of 0.1 ml was incubated for 5 min at room temperature. The absorbance at 405 nm was measured continuously using a 96-well microplate reader (model 550, BioRad), and the increase in absorbance for 5 min was calculated as an index of factor Xa activity.

T1 sequence (P00742 235-488 limits assumed): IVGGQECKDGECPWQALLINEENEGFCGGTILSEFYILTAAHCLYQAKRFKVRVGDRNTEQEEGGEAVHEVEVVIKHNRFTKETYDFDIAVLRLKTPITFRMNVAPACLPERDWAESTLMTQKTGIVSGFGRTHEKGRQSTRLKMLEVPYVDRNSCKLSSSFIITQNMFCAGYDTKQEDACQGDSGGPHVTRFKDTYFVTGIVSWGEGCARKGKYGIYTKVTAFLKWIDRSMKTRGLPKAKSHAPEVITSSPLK
T1 sequence (P00742 41-179 partner limits assumed): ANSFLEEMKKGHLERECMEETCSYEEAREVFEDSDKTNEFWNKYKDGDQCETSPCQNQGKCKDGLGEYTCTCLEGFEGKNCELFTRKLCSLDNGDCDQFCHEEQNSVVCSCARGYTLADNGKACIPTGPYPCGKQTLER

SMILES | IC50
CC(=N)N1CCC(Oc2ccc(N(C/C=C/c3cccc(C(=N)N)c3)C(C)C)cc2)CC1 [Example 22, 3-[3-[N-[4-(1-Acetimidoylpiperidin-4-yloxy)phenyl]-N-isopropylamino]-1-(E)-propenyl]benzamidine Trihydrochloride] | 8.3 nM
CCOC(=O)CN(C/C=C/c1cccc(C(=N)N)c1)c1ccc(OC2CCN(C(C)=N)CC2)cc1 [Example 23, Ethyl 2-[N-[4-(1-Acetimidoylpiperidin-4-yloxy)phenyl]-N-[3-(3-amidinophenyl)-2-(E)-propenyl]amino]acetate Trihydrochloride] | 8.3 nM
CCOC(=O)CS(=O)(=O)N(C/C=C/c1cccc(C(=N)N)c1)c1ccc(OC2CCN(C(C)=N)CC2)c(Cl)c1 [Example 8, Ethyl N-[4-(1-Acetimidoylpiperidin-4-yloxy)-3-chlorophenyl]-N-[3-(3-amidinophenyl)-2-(E)-propenyl]sulfamoylacetate Dihydrochloride] | 4.5 nM
CC(=N)N1CCC(Oc2ccc(N(CCOc3cccc(C(=N)N)c3)S(=O)(=O)CC(=O)O)cc2)CC1 [Compound A, N-[4-[1-acetimidoyl-4-piperidyloxy]phenyl]-N-[2-(3-amidinophenoxy)ethyl]sulfamoylacetic acid dihydrochloride salt, reference compound] | 130 nM
CCOC(=O)CS(=O)(=O)N(C/C=C/c1cccc(C(=N)N)c1)c1ccc(OC2CCN(C(C)=N)CC2)c(C(=O)OCC)c1 [Example 29, Ethyl N-[4-(1-Acetimidoylpiperidin-4-yloxy)-3-ethoxycarbonylphenyl]-N-[3-(3-amidinophenyl)-2-(E)-propenyl]sulfamoylacetate Dihydrochloride] | 9 nM
CC(=N)N1CCC(Oc2ccc(N(C/C=C/c3cccc(C(=N)N)c3)S(=O)(=O)CC(=O)O)cc2)CC1 [Example 4, N-[4-(1-Acetimidoylpiperidin-4-yloxy)phenyl]-N-[3-(3-amidinophenyl)-2-(E)-propenyl]sulfamoylacetic Acid Dihydrochloride] | 6.4 nM
CCOC(=O)CS(=O)(=O)N(C/C=C/c1cccc(C(=N)N)c1)c1ccc(OC2CCN(C(C)=N)CC2)c(F)c1 [Example 10, Ethyl N-[4-(1-Acetimidoylpiperidin-4-yloxy)-3-fluorophenyl]-N-[3-(3-amidinophenyl)-2-(E)-propenyl]sulfamoylacetate Dihydrochloride] | 4.6 nM
CC(=N)N1CCC(Oc2ccc(N(C/C=C/c3cccc(C(=N)N)c3)S(=O)(=O)CC(=O)O)cc2Cl)CC1 [Example 9, N-[4-(1-Acetimidoylpiperidin-4-yloxy)-3-chlorophenyl]-N-[3-(3-amidinophenyl)-2-(E)-propenyl]sulfamoylacetic Acid Dihydrochloride] | 7.4 nM
CC(=N)N1CCC(Oc2ccc(N(C/C=C/c3cccc(C(=N)N)c3)S(=O)(=O)CC(=O)O)cc2F)CC1 [Example 11, N-[4-(1-Acetimidoylpiperidin-4-yloxy)-3-fluorophenyl]-N-[3-(3-amidinophenyl)-2-(E)-propenyl]sulfamoylacetic Acid Dihydrochloride] | 8.1 nM
CC(=N)N1CCC(Oc2ccc(N(C/C=C/c3cccc(C(=N)N)c3)CCO)cc2)CC1 [Example 28, 3-[3-[N-[4-(1-Acetimidoylpiperidin-4-yloxy)phenyl]-N-(2-hydroxyethyl)amino]-1-(E)-propenyl]benzamidine Trihydrochloride] | 9 nM
CCOC(=O)CS(=O)(=O)N(C/C=C/c1cccc(C(=N)N)c1)c1ccc(OC2CCN(C(C)=N)CC2)cc1 [Example 3, Ethyl N-[4-(1-Acetimidoylpiperidin-4-yloxy)phenyl]-N-[3-(3-amidinophenyl)-2-(E)-propenyl]sulfamoylacetate Dihydrochloride] | 8.6 nM

Continued, values first:

IC50 | SMILES
9.8 nM | CC(=N)N1CCC(Oc2c(Cl)cc(N(C/C=C/c3cccc(C(=N)N)c3)S(=O)(=O)CC(=O)O)cc2Cl)CC1 [Example 49, N-[4-(1-Acetimidoylpiperidin-4-yloxy)-3,5-dichlorophenyl]-N-[3-(3-amidinophenyl)-2-(E)-propenyl]sulfamoylacetic Acid Dihydrochloride]
10 nM | CCOC(=O)CS(=O)(=O)N(C/C(F)=C/c1cccc(C(=N)N)c1)c1ccc(OC2CCN(C(C)=N)CC2)cc1 [Example 56, Ethyl N-[4-(1-Acetimidoylpiperidin-4-yloxy)phenyl]-N-[3-(3-amidinophenyl)-2-fluoro-2-(Z)-propenyl]sulfamoylacetate Dihydrochloride]
6.8 nM | CCOC(=O)CS(=O)(=O)N(C/C=C/c1cccc(C(=N)N)c1)c1cc(F)c(OC2CCN(C(C)=N)CC2)c(F)c1 [Example 46, Ethyl N-[4-(1-Acetimidoylpiperidin-4-yloxy)-3,5-difluorophenyl]-N-[3-(3-amidinophenyl)-2-(E)-propenyl]sulfamoylacetate Dihydrochloride]
10 nM | CCOC(=O)CS(=O)(=O)N(C/C=C/c1cccc(C(=N)N)c1)c1ccc(OC2CCN(C(C)=N)CC2)c(Br)c1 [Example 31, Ethyl N-[4-(1-Acetimidoylpiperidin-4-yloxy)-3-bromophenyl]-N-[3-(3-amidinophenyl)-2-(E)-propenyl]sulfamoylacetate Dihydrochloride]
5 nM | CC(=N)N1CCC(Oc2ccc(N(C/C=C/c3cccc(C(=N)N)c3)S(=O)(=O)CC(=O)O)cc2C)CC1 [Example 55, N-[4-(1-Acetimidoylpiperidin-4-yloxy)-3-methylphenyl]-N-[3-(3-amidinophenyl)-2-(E)-propenyl]sulfamoylacetic Acid Dihydrochloride]
7.5 nM | CCOC(=O)CS(=O)(=O)N(C/C=C/c1cc(C(=N)N)ccc1O)c1ccc(OC2CCN(C(C)=N)CC2)c(Cl)c1 [Example 41, Ethyl N-[4-(1-Acetimidoylpiperidin-4-yloxy)-3-chlorophenyl]-N-[3-(5-amidino-2-hydroxyphenyl)-2-(E)-propenyl]sulfamoylacetate Dihydrochloride]
9.3 nM | CC(=N)N1CCC(Oc2ccc(N(C/C(F)=C/c3cccc(C(=N)N)c3)S(=O)(=O)CC(=O)O)cc2)CC1 [Example 57, N-[4-(1-Acetimidoylpiperidin-4-yloxy)phenyl]-N-[3-(3-amidinophenyl)-2-fluoro-2-(Z)-propenyl]sulfamoylacetic Acid Dihydrochloride]
4.6 nM | CC(=N)N1CCC(Oc2ccc(N(C/C=C/c3cccc(C(=N)N)c3)S(=O)(=O)CC(=O)O)cc2C(F)(F)F)CC1 [Example 54, N-[4-(1-Acetimidoylpiperidin-4-yloxy)-3-trifluoromethylphenyl]-N-[3-(3-amidinophenyl)-2-(E)-propenyl]sulfamoylacetic Acid Dihydrochloride]
3.7 nM | CC(=N)N1CCC(Oc2c(F)cc(N(C/C=C/c3cccc(C(=N)N)c3)S(=O)(=O)CC(=O)O)cc2F)CC1 [Example 47, N-[4-(1-Acetimidoylpiperidin-4-yloxy)-3,5-difluorophenyl]-N-[3-(3-amidinophenyl)-2-(E)-propenyl]sulfamoylacetic Acid Dihydrochloride]
7.1 nM | CC(=N)N1CCC(Oc2ccc(N(C/C=C/c3cccc(C(=N)N)c3)S(=O)(=O)CC(=O)O)cc2C(N)=O)CC1 [Example 36, N-[4-(1-Acetimidolpiperdin-4-yloxy)-3-carbamoylphenyl]-N-[3-(3-amidinophenyl)-2-(E)-propenyl]sulfamoylacetic Acid Dihydrochloride]
10 nM | CC(=N)N1CCC(Oc2ccc(N(C/C=C/c3cccc(C(=N)N)c3)S(=O)(=O)CC(=O)O)cc2C(C)C)CC1 [Example 34, N-[4-(1-Acetimidoylpiperidin-4-yloxy)-3-isopropylphenyl]-N-[3-(3-amidinophenyl)-2-(E)-propenyl]sulfamoylacetic Acid Dihydrochloride]
8.7 nM | CNC(=O)c1cc(N(C/C=C/c2cccc(C(=N)N)c2)S(=O)(=O)CC(=O)O)ccc1OC1CCN(C(C)=N)CC1 [Example 38, N-[4-(1-Acetimidoylpiperidin-4-yloxy)-3-(N′-methylcarbamoyl)phenyl]-N-[3-(3-amidinophenyl)-2-(E)-propenyl]sulfamoylacetic Acid Dihydrochloride]

Target: T2, bovine trypsin (Bos taurus, UniProt P00760)
T2 construct: purchased Sigma
T2 sequence (P00760 24-246): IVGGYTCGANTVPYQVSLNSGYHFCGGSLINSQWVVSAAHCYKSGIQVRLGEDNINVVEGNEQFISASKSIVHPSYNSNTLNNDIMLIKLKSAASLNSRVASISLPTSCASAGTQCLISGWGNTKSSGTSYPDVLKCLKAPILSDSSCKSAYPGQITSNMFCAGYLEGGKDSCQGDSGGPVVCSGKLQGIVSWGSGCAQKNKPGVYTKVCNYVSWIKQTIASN
Assay: Determination of anti-trypsin activity (chromogenic substrate S-2222)
Type: biochemical
Details: bovine trypsin 0.25 μg-protein/ml, 0.4 mM S-2222, tris-HCl buffer pH 8.4, room temperature, 5 min, absorbance 405 nm
Description: Anti-trypsin activity was determined according to the method of Taniuchi et al. [Thromb. Haemost., 79, 543 (1998)] with slight modifications. First, 85 μl of a 50 mM tris-HCl buffer (pH 8.4) containing 0.9% NaCl, 5 μl of chromogenic substrate, S-2222 (final concentration of 0.4 mM, Daiichi Pure Chemicals Co., Ltd., Tokyo, Japan) and 5 μl of a test compound were mixed, and the reaction was started by adding 5 μl of bovine trypsin (final concentration of 0.25 μg-protein/ml, Sigma). Distilled water instead of the test compound was added to the buffer in the control group. The reaction mixture in a total volume of 0.1 ml was incubated at room temperature. The absorbance at 405 nm was measured continuously using a 96-well microplate reader (model 550, BioRad), and the increase in absorbance for 5 min was calculated as an index of trypsin activity.

IC50 | SMILES
520 nM | CC(=N)N1CCC(Oc2ccc(N(C/C=C/c3cccc(C(=N)N)c3)S(=O)(=O)CC(=O)O)cc2Cl)CC1 [Example 9, N-[4-(1-Acetimidoylpiperidin-4-yloxy)-3-chlorophenyl]-N-[3-(3-amidinophenyl)-2-(E)-propenyl]sulfamoylacetic Acid Dihydrochloride]
840 nM | CC(=N)N1CCC(Oc2ccc(N(C/C=C/c3cccc(C(=N)N)c3)S(=O)(=O)CC(=O)O)cc2F)CC1 [Example 11, N-[4-(1-Acetimidoylpiperidin-4-yloxy)-3-fluorophenyl]-N-[3-(3-amidinophenyl)-2-(E)-propenyl]sulfamoylacetic Acid Dihydrochloride]
